Assay results reported in PubChem BioAssay AID248 (DTP/NCI, 2004).
Several values for one entry are separate records, joined by “and”; a condition that tells them apart may be missing. Identical values can stand only once. Inconclusive results and toxic doses are left out.

Test system: L1210 leukemia ip in BDF1 mice, survival T/C
Assay: NCI In Vivo Anticancer Drug Screen. Data for tumor model L1210 Leukemia (intraperitoneal) in B6D2F1 (BDF1) mice
Conditions: endpoint: mean survival time, higher = longer survival
Method in brief: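 Tumor was transplanted into mice, which were then dosed with test compound or vehicle alone. Survival was recorded for each group, and the treated figure was expressed relative to the control figure.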

[1] = dose: 50.0 mg/kg/injection, schedule: Q01DX009 (ip), vehicle: saline
[2] = dose: 100.0 mg/kg/injection, schedule: Q01DX009 (ip), vehicle: saline
[3] = dose: 200.0 mg/kg/injection, schedule: Q01DX009 (ip), vehicle: saline
[4] = dose: 100.0 mg/kg/injection, schedule: Q04DX003 (ip), vehicle: gum acacia
[5] = dose: 200.0 mg/kg/injection, schedule: Q04DX003 (ip), vehicle: gum acacia
[6] = dose: 50.0 mg/kg/injection, schedule: Q01DX001 (ip), vehicle: saline
[7] = dose: 100.0 mg/kg/injection, schedule: Q01DX001 (ip), vehicle: saline
[8] = dose: 100.0 mg/kg/injection, schedule: Q01DX001 (ip), vehicle: carboxymethylcellulose (CMC)
[9] = dose: 200.0 mg/kg/injection, schedule: Q01DX001 (ip), vehicle: carboxymethylcellulose (CMC)
[10] = dose: 200.0 mg/kg/injection, schedule: Q01DX001 (ip), vehicle: saline
[11] = dose: 400.0 mg/kg/injection, schedule: Q01DX001 (ip), vehicle: saline

Compound: COC1=CCC2C(=O)OC(=O)C2C1 (configuration not stated)
- T/C (dose: 25.0 mg/kg/injection, schedule: Q01DX009 (ip), vehicle: saline): 90 % of control
- T/C [1]: 94 % of control
- T/C [2]: 100 % of control
- T/C [3]: 109 % of control
- T/C (dose: 400.0 mg/kg/injection, schedule: Q01DX009 (ip), vehicle: saline): 100 % of control

Compound: Nc1nc(N)c2c(Cl)c(CNc3ccc(C(=O)NC(CC(=O)O)CC(=O)O)cc3)ccc2n1
- T/C (dose: 12.5 mg/kg/injection, schedule: Q04DX003 (ip), vehicle: saline): 157 % of control
- T/C (dose: 25.0 mg/kg/injection, schedule: Q04DX003 (ip), vehicle: saline): 178 % of control
- T/C (dose: 50.0 mg/kg/injection, schedule: Q04DX003 (ip), vehicle: saline): 90 % of control

Compound: Cc1cccc(OC(=O)Nc2ccc(C(=O)O)c(O)c2)c1
- T/C (dose: 50.0 mg/kg/injection, schedule: Q04DX003 (ip), vehicle: gum acacia): 96 % of control and 98 % of control
- T/C (dose: 100.0 mg/kg/injection, schedule: Q01DX001 (ip), vehicle: gum acacia): 104 % of control and 105 % of control
- T/C (dose: 100.0 mg/kg/injection, schedule: Q01DX009 (ip), vehicle: gum acacia): 97 % of control and 88 % of control
- T/C (dose: 100.0 mg/kg/injection, schedule: Q04DX002 (ip), vehicle: gum acacia): 94 % of control and 88 % of control
- T/C [4]: 101 % of control and 88 % of control
- T/C (dose: 200.0 mg/kg/injection, schedule: Q01DX001 (ip), vehicle: gum acacia): 100 % of control and 107 % of control
- T/C (dose: 200.0 mg/kg/injection, schedule: Q01DX009 (ip), vehicle: gum acacia): 98 % of control and 117 % of control
- T/C (dose: 200.0 mg/kg/injection, schedule: Q04DX002 (ip), vehicle: gum acacia): 95 % of control and 110 % of control
- T/C [5]: 98 % of control and 101 % of control

Compound: NCCCCC(N)C(=O)Nc1ccc(Cc2ccc(NC(=O)C(N)CCCCN)cc2)cc1 (configuration not stated)
- T/C [6]: 103 % of control
- T/C [7]: 100 % of control

Compound: OC(Nc1ccccn1)(C(F)(F)F)C(F)(F)F
- T/C [7]: 103 % of control

Compound: CC(=O)Oc1ccc(OC(C)=O)c2c1C(=O)c1ccccc1C2=O
- T/C (dose: 50.0 mg/kg/injection, schedule: Q01DX001 (ip), vehicle: carboxymethylcellulose (CMC)): 104 % of control
- T/C [8]: 110 % of control
- T/C [9]: 102 % of control
- T/C (dose: 400.0 mg/kg/injection, schedule: Q01DX001 (ip), vehicle: carboxymethylcellulose (CMC)): 110 % of control

Compound: CCCCCCCCCCCCCCCC[As](=O)(O)CCCCCCCCCCCCCCCC
- T/C [6]: 97 % of control
- T/C [7]: 97 % of control
- T/C [10]: 89 % of control
- T/C [11]: 101 % of control

Compound: O=C(Nc1cccc([N+](=O)[O-])c1)c1cccc(C(=O)Nc2cccc([N+](=O)[O-])c2)c1
- T/C (dose: 100.0 mg/kg/injection, schedule: Q01DX009 (ip), vehicle: Klucel (hydroxypropylcellulose) (HPC)): 94 % of control
- T/C (dose: 200.0 mg/kg/injection, schedule: Q01DX009 (ip), vehicle: Klucel (hydroxypropylcellulose) (HPC)): 89 % of control
- T/C (dose: 400.0 mg/kg/injection, schedule: Q01DX009 (ip), vehicle: Klucel (hydroxypropylcellulose) (HPC)): 89 % of control

Compound: CCCCCCCCCCC1CCC(CCCCCCCCCC)CC1 (configuration not stated)
- T/C (dose: 100.0 mg/kg/injection, schedule: Q01DX001 (ip), vehicle: other): 106 % of control
- T/C (dose: 200.0 mg/kg/injection, schedule: Q01DX001 (ip), vehicle: other): 107 % of control
- T/C (dose: 400.0 mg/kg/injection, schedule: Q01DX001 (ip), vehicle: other): 91 % of control

Compound: OC(c1ccccc1)C1C(c2ccccc2)N1C1CCCCC1 (configuration not stated)
- T/C (dose: 25.0 mg/kg/injection, schedule: Q01DX009 (ip), vehicle: Klucel (hydroxypropylcellulose) (HPC)): 97 % of control
- T/C (dose: 50.0 mg/kg/injection, schedule: Q01DX009 (ip), vehicle: Klucel (hydroxypropylcellulose) (HPC)): 96 % of control
- T/C (dose: 100.0 mg/kg/injection, schedule: Q04DX003 (ip), vehicle: Klucel (hydroxypropylcellulose) (HPC)): 101 % of control
- T/C (dose: 200.0 mg/kg/injection, schedule: Q04DX003 (ip), vehicle: Klucel (hydroxypropylcellulose) (HPC)): 98 % of control

Compound: COc1cccc(CCCC(=O)O)c1OC
- T/C [4]: 99 % of control
- T/C [5]: 94 % of control
- T/C (dose: 400.0 mg/kg/injection, schedule: Q04DX003 (ip), vehicle: gum acacia): 96 % of control

Compound: CCOc1cc(N)nc(N)c1[N+](=O)[O-]
- T/C [8]: 95 % of control
- T/C [9]: 87 % of control

Compound: S=c1[nH]c2ccccc2s1.[Pb]
- T/C (dose: 100.0 mg/kg/injection, schedule: Q01DX001 (ip), vehicle: Klucel (hydroxypropylcellulose) (HPC)): 94 % of control
- T/C (dose: 200.0 mg/kg/injection, schedule: Q01DX001 (ip), vehicle: Klucel (hydroxypropylcellulose) (HPC)): 100 % of control
- T/C (dose: 400.0 mg/kg/injection, schedule: Q01DX001 (ip), vehicle: Klucel (hydroxypropylcellulose) (HPC)): 100 % of control

Compound: CCCCCCc1cc(N=Nc2ccc(S(N)(=O)=O)cc2)c(O)cc1O
- T/C [7]: 97 % of control
- T/C [10]: 102 % of control
- T/C [11]: 96 % of control

Compound: CCCC(C)(CO)COC(N)=O (configuration not stated)
- T/C [7]: 105 % of control
- T/C [10]: 103 % of control
- T/C [11]: 111 % of control

Compound: CCO/C=C/C(=O)NC(=O)NC1CC(O)C(CO)C1 (configuration not stated)
- T/C [1]: 104 % of control
- T/C [2]: 107 % of control
- T/C [3]: 93 % of control

Compound: N#CCCCSC(=N)N
- T/C [7]: 106 % of control
- T/C [10]: 104 % of control
